The source of these data is patent US10300107B2, “Compositions and methods for CaMKII inhibitors and uses thereof” (THE REGENTS OF THE UNIVERSITY OF COLORADO, priority 2007, dated 2019).

Several values for one entry are separate records, joined by “and”; a condition that tells them apart may be missing. Equal values may be shown once. Entries after “also recorded” stand apart in the source; their conditions may differ. Read-outs that look alike come from different tables or passages of the source. Where no end group is shown, it is not given here. A value given as a limit tells only on which side of the number the result lay.

As usually defined, the IC50 is the concentration needed to halve the response being measured. What is called Kd is a measure of binding affinity in units of concentration.

In test [1] the test system is CaMKII. Type of test: biochemical. Conditions: for potency of CaMKII inhibition of CN19 combination mutants: comparator as stated in the value; for effect of further mutation on potency of CaMKII inhibition: CN19a2v background; for IC50: read-out: IC50 of CaMKII inhibition. The method, then: CaMKII activity assays. Standard CaMKII assays were done for 1 min at 30° C. previously described, with 20 nM CaMKII (subunit, not holoenzyme concentration), 50 mM PIPES pH 7.2, 0.1 mg/ml BSA, 10 mM MgCl2, 100 μM [γ-^32P] ATP (˜1 Ci/mmol), 1 mM CaCl2, 1-2 μM CaM, and 30-60 μM AC2 peptide (or syntide2). The reactions were spotted onto Whatman P81 phosphocellulose paper rectangles (˜2×2.5 cm). To remove free radioactivity, the paper rectangles were rinsed and washed for 30 min under agitation in 0.5% phosphoric acid or water. […] Radioactivity of the bound peptides was quantified in a Beckman 6000TA scintillation counter by the Cherenkov method. Any changes of the standard protocol were done as indicated. For assays of the GFP-CaMKIIα mutants, kinase amounts were normalized by GFP fluorescence in the extract, and total protein was adjusted with Cos-7 extracts.

Test [2] addresses T1, CaMKII binding to GST-NR2B-c (Homo sapiens, UniProt Q9UQM7).
T1 construct: made in house; host or cells: CaMKII: baculovirus/Sf9; GST-NR2B-c and CaM: bacteria
Put plainly: Ca2+/CaM-induced CaMKII binding to immobilized GST-NR2B-c. Particulars: Western blot of eluted CaMKII. For orientation: Immunoblotting shows a protein as a band on a membrane.
Description: CaMKII binding to NR2B-c was assessed as previously described. Briefly, GST-NR2B-c was immobilized on anti-GST coated microtiter plates, then overlaid with 100 nM CaMKII in presence of Ca^2+/CaM and 1 or 5 μM of various CN peptides. After extensive wash, protein was eluted from the plates by boiling in SDS-loading buffer. Eluted CaMKII was detected by Western-blot as described above.

Test [3] concerns the target T2, CaMKII (Homo sapiens, UniProt Q9UQM7).
T2 construct: made in house; host or cells: baculovirus/Sf9 cells
Put plainly: CaMKII auto- and protein-phosphorylation (MAP2, T286, T305; immuno-blot). Conditions: KN93 10 μM. Type of test: biochemical. Here is the method: CaMKII auto- and protein-phosphorylation. 10 nM MAP2 (˜140 nM phosphorylation sites) was used instead of substrate peptide, and reaction times were 5 min, unless indicated otherwise. CaMKII concentration was 100 nM subunits (=8.3 nM holoenzymes). Auto- and MAP2-phosphorylation were assessed by Immuno-blot analysis previously derived (Bayer et al., 2002, incorporated herein by reference) with phospho-T286- or -T305-specific antibodies (1:500; PhosphoSolutions) and an anti-phospho-Thr antibody (1:500; Zymed), respectively. Total CaMKIIα was detected with CBα2 antibody (1:2000; GIBCO). Protein were separated on 10% poly-acrylamid SDS Gels, and electro-blotted onto “Protran” 0.2 μm pore nitrocelluse filters (e.g. Schleicher & Schull) or onto PVDF filters (e.g. Perkin Elmer). Alternatively, for quantitative analyses, a vacuum-driven slot-blot manifold (e.g. Schleicher & Schull) was used for transfer onto PVDF membranes. PVDF membranes were air-dried for 15 min, then wetted in Methanol. Blots were blocked in 5% milk in TBS-T (Tris-buffered saline pH 7.6 with 0.1% Tween-20). Antibodies were incubated for 45-60 min at room temperature in 2.5% milk in TBS-T; for the anti-phospho-T305 antibody, 2.5% BSA was used instead. After secondary antibody incubation (anti-mouse or anti-rabbit horseradish peroxidase conjugate; Amersham; 1:4000), detection was done using the “Western Lightning” system (Perkin Elmer) and exposure to “Hyperfilm” (Amersham). For quantitative analysis, chemoluminescence was captured using a ChemiImager 4400 imaging system (Alpha Innotek) instead of film. Only non-saturated images were analyzed, using AlphaEase software.

Test [4] concerns Langerhans' islets. As to the kind of experiment: Glucose-induced insulin secretion from isolated Langerhans' islets. Type of test: cell-based, rat. Particulars: 11 mM glucose; EGTA 0.5 mM, KN93 10 μM, antCN27 5 μM, tatCN21 5 μM.
Description: Insulin secretion. Langerhans' islets acutely isolated from adult male Wistar rats (Harlan) were obtained. […] Inhibitors or EGTA were added 30 min before stimulation. Insulin secreted into the medium during 90 min stimulation was measured using an ELISA kit (CrystalChem).
The subject of test [5] is hippocampal and cortical cultures. Put plainly: Glutamate induced neuronal cell death measured by LDH release. Type of test: cell-based, rat. Here is the method:
In another example, neuronal cell death is measured by LDH release. In this exemplary method, glutamate was used to induce neuronal cell death, A portion of CaMKIIN was fused to a cell penetrating molecule to generate tatCN21a construct.
Background: LDH leaks from cells whose membrane has failed.

The target of test [6] is T2, CaMKII. Put plainly: Autonomous CaMKII activity (pre-autophosphorylated CaMKII). The test is classed as biochemical. The method, then: (§1) Stimulated CaMKII activity was assessed using purified CaMKII, [γ^32P]ATP, and the CaMKII substrate, syntide2. Reaction was initiated by addition of calcium and calmodulin. To measure autonomous activity, CaMKII was pre-autophosphorylated by incubation with calcium and calmodulin, which was then chelated by addition of EDTA prior to adding the kinase to syntide2 and [γ^32P]ATP. […] To measure self-association, purified CaMKII was incubated for five minutes with 1mM ADP, calcium and calmodulin, and the appropriate inhibitor. The reaction mixture was then centrifuged to pellet the self-associated kinase. The supernatant (S) was removed and saved and the pellet (P) was resuspended. Both were then resolved by SDS-PAGE and western-blotted for CaMKII. Self-associated kinase is found in the pellet.

For test [7], the target named is T2, CaMKII. As to the kind of experiment: CaMKII self-association in vitro. The test is classed as biochemical. Here is the method: as §1
The target of test [8] is CaMKI (Homo sapiens, UniProt Q14012). As to the kind of experiment: CaMKI activity / inhibition. Type of test: biochemical. An excerpt: For curve fit, the Hill coefficient was set as 1.
In test [9] the target is calmodulin (CaM) (Homo sapiens, UniProt P0DP23). Put plainly: Binding to calmodulin (slot blot, blot overlay, TA-CaM competition with CBD). Conditions: for binding of biotinylated CaM to immobilized peptide: slot blot.
Description: TA-labeled CaM represents reduced fluorescence after binding to CaMKII or its CaM binding domain (CBD; −0.05 nM kD for CaM^5; see also FIG. 9G).
Measured was AC2 phosphorylation as described^4. Error bars show s.e.m.
The subject of test [10] is protein kinase C (PKC). Put plainly: Phosphorylation of CN19 peptides by PKC in vitro. Type of test: biochemical. From the text:
CN19 phosphorylation at S12 by protein kinase C reduces potency of CaMKII inhibition. In another exemplary method, protein kinase C (PKC) activity was examined with respect to CN19 as a substrate or the S12 mutant. […] The CN19 region most sensitive to Ala substitutions (surrounding R11) contains a potential PKC phosphorylation site (S12).
FIGS. 22A and 22B represent CN19 phosphorylation at S12 by PKC reduces potency of CaMKII inhibition. A, PKC phosphorylated CN19 but not its S12A mutant in vitro, as measured by phosphate incorporation. The phosphorylation rate of CN19 was >50% compared to a MARCKS peptide substrate of PKC. […] S12 was sensitive also to various other mutations (see Table 1 and data not shown). Error bars indicate s.e.m. in all panels.

Sequence of CaMKI (Q14012 whole entry, species assumed): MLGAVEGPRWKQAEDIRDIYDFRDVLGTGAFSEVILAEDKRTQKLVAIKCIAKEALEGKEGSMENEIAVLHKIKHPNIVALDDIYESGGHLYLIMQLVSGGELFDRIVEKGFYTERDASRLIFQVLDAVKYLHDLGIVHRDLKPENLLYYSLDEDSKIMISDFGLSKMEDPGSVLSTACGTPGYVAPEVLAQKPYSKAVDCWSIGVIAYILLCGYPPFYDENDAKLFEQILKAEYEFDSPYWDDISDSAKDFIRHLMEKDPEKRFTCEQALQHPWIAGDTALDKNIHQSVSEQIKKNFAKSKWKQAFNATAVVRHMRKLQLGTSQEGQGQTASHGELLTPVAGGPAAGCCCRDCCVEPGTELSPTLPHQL

Take KRPPKLGQIGRSKAVVIED [R14A]: the “increase of potency of CaMKII inhibition compared to CN19” value in [1] is listed as “over 10 fold”. Moreover, the “effect of single CN19 mutation on potency of CaMKII inhibition” value in [1] (compared to CN19 wild type) is “significantly increased potency; also recorded: very potent”. Also, in [1] (phosphorylation of syntide 2), the “IC50 of CaMKII inhibition” value was “single digit”.

“CN19a3: CN19 triple mutant P3A, K13A, R14A (KRAPKLGQIGRSAAVVIED)”: the “potency of CaMKII inhibition of CN19 combination mutants” value is given as “significantly increased over CN19 wild type; also recorded: significantly increased potency compared to single mutant with the highest potency, R14A” in test [1] and “significantly increased potency of CaMKII inhibition over CN19 wild type; also recorded: slightly better inhibition than the aX mutant” in [1] (listed as a3).

Consider `COc1ccc(S(=O)(=O)N(CCO)c2ccccc2CN(C)C/C=C/c2ccc(Cl)cc2)cc1` [KN93, reference compound], for which the “calcium and calmodulin stimulated CaMKII activity” value in [1] (substrate syntide2) is “inhibit calcium and calmodulin stimulated CaMKII activity”. For the same compound, the “CaMKII binding to immobilized GST-NR2B-c / NR2B” value in test [2] is recorded as “inhibited binding”. The “CaMKII T305 auto-phosphorylation” value in test [3] (CN21 5 μM) is reported as “blocked T305”. In addition, the “CaMKII T286 auto-phosphorylation” value in test [3] (CN peptides 1-5 μM) is on record as “essentially completely blocked”. Further, the glucose-induced insulin secretion entry in test [4] is “inhibited”. In addition, the figures for the “glutamate induced neuronal cell death” value in [5] (added 1 h after the insult) and in test [5] (present during the insult) were “not when added after the insult; also recorded: only when applied during but not after glutamate insult” and “protective only when present during the insult; also recorded: reduce by half”, respectively. For the same compound, in test [6], the “autonomous CaMKII activity” value was “only tatCN21 inhibits autonomy”. Moreover, the “CaMKII self-association in vitro” value in test [7] was “inhibited”.

Take `CC1CNCCN1S(=O)(=O)c1cccc2cnccc12` (stereo not shown) [H7, reference compound]: in test [2], the “CaMKII binding to immobilized GST-NR2B-c / NR2B” value was “did not”.

In the case of “CN27: CaM-KIINtide, previously identified inhibitory region of CaM-KIIN, SEQ ID NO:17 (KRPPKLGQIGRSKRVVIEDDRIDDVLK; Derived from CaMKIIN) [reference compound]”, the “inhibition of CaMKII isoforms α and β” value in test [1] is “inhibit both major brain CaMKII isoforms, α and β”. In addition, the “effect on CaMKI activity” value in test [8] is “no significant effect”.

With “CN17a: C-terminal truncation of CN21a by 4 amino acids (KRPPKLGQIGRSKRVVI)”, in [1] (CN truncation peptides, substrate peptides AC2 or syntide 2), the “inhibitory potency on CaMKII activity” value is “still clearly affected CaMKII activity”.

Consider KRAPKLGQIGRVKAVDIED [CN19a2v V16D], for which the “effect of further mutation on potency of CaMKII inhibition” value in test [1] was “significantly increase potency; also recorded: dramatically increase CaMKII inhibition”. In [1] (phosphorylation of syntide 2), the IC50 is roughly 0.001 µM.

Regarding “tat: cell penetrating sequence YGRKKRRQRRR, SEQ ID NO:15 [reference compound]”, the “effect on CaMKI activity” value in [8] is “statistically significant but much milder effects”. The “binding of biotinylated CaM to immobilized peptide” value in test [9] is “did not bind”.

KRPPKLGQIGRSKRVVIED [CN19]: in test [8], the IC50 is roughly 36 µM and the “effect on CaMKI activity” value is listed as “no significant effect”. Besides, in test [10], the “phosphorylated by PKC” value is “phosphorylated by PKC” and the “phosphorylation rate by PKC compared to MARCKS peptide substrate” value was greater than 50%.

On to KRAPKLGQIGRVKAVVIED [CN19a2v], for which, in test [1], the “increase of potency of CaMKII inhibition compared to CN19” value is “about 5 fold” and the “potency of CaMKII inhibition of CN19 combination mutants” value was “without loss of inhibition potency; also recorded: significantly stronger compared to CN19a3 with additional S12V mutation; also recorded: did not reduce potency”. For the same compound, in test [1] (phosphorylation of syntide 2), the IC50 is ~0.02 µM and 0.02 µM. Further, the IC50 in test [8] was roughly 18 µM.

With KRPPKLGQIGRSKRVVIEDD [CN20], the IC50 in test [1] (phosphorylation of syntide 2) was roughly 0.1 µM.

Regarding “V16D: CN19 position 16 substituted with D (rational mutagenesis) (KRAPKLGQIGRVKAVDIED)”, the “Effects of individual CN19 mutations on CaMKII inhibition: column +” value in test [1] (value = substituting residue listed under +) is on record as “D*”.

Take `O=C(O)CN(CCOCCOCCN(CC(=O)O)CC(=O)O)CC(=O)O` [EGTA]: the glucose-induced insulin secretion entry in test [4] is on record as “inhibited”.

For RQIKIWFQNRRMKWK [ant], in test [9], the dissociation constant (Kd) was roughly 0.005 µM, the “competition with CBD for binding of TA-labeled CaM” value is “compete” and the “binding of biotinylated CaM to immobilized peptide” value is listed as “Direct binding”. The “interference with Ca2+-dependent CaM binding to brain proteins” value in test [9] (blot overlay assay, 5 μM peptide) is “also interfered with such CaM binding, but somewhat less efficiently than antCN27; also recorded: affect Ca^2+-dependent CaM binding”.

As to `N[C@@H](CCCP(=O)(O)O)C(=O)O` [APV], the “glutamate induced cell death” value in test [5] (7DIV cortical, added 1-6 hours post insult) was “did not”. The “glutamate induced neuronal cell death” value in [5] (present during the insult) is reported as “only reduces cell death when present during the insult”.

For “CN19a2: CN19 double mutant P3A, R14A, SEQ ID NO: 25 (KRAPKLGQIGRSKAVVIED; Derived from CamKIIN with amino acid substitutions)”, the “potency of CaMKII inhibition of CN19 combination mutants” value is given as “largest increase in CaMKII inhibition potency; also recorded: most potent double mutant of CN19” in [1] and “higher potency than the a3 mutant; also recorded: significant inhibition even at 10 nM” in test [1] (listed as a2).

In the case of KRAPKLGQIGRQKAVVIED [CN19a2v V12Q], the “effect of further mutation on potency of CaMKII inhibition” value in test [1] is on record as “significantly increase potency; also recorded: dramatically increase CaMKII inhibition”. Besides, in [1] (phosphorylation of syntide 2), the IC50 was roughly 0.001 µM.
